For data set [1] the following is noted: dose of 20 mg as a single intake; cited from earlier work.
Data set [2] addresses type 4 phosphodiesterases (PDE4). Kind of data set: Inhibition of the phosphodiesterase (PDE4), enzymatic preparation from line U937. In kind it is biochemical. The following applies: PDE4 from cytosolic preparation of human cell line U937. A digest of the protocol:
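PDE4 came from a cytosolic preparation of human U937 cells. Enzymatic activity was measured with inhibitor at 0.1 to 100 μM. IC50 was defined as the concentration inhibiting 50% of enzyme activity.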

The test system of data set [3] is TNFα production by human leukocytes. The experiment in a line: Inhibition of TNFα production by human leukocytes stimulated by lipopolysaccharid. Format: cell-based. The following applies: Leukocyte; LPS-stimulated human leukocytes in 75% human serum; TNFα by ELISA after 15-18 hours. The protocol:
This test aims to evaluate capacity of the compounds of the invention to inhibit TNFα (tumor necrosis-α) production by human leukocytes in the presence of high human serum concentration (75%). […] The test described here is based on the use of human leukocytes cultivated in 75% of human serum. It had been previously documented that these conditions simulate the observed situation when TNFα dosage is performed in human blood.
The compounds to test are dissolved into 20 mM (sometimes 6 mM) of DMSO. 100 μl of DMSO are distributed into 7 wells of a a 96 well microtiter plate (wells B to H). 150 μl of the compound solution are distributed into line A wells. 50 μl are then sequentially transferred 7 times. 20 μl of this serial dilutions of compounds are sequentially transferred twice in wells containing 180 μl of RPMI 1640 (Gibco). 50 μl of these dilutions are then transferred in wells where cells will be added.
Each test includes a series of eight wells without LPS (100% of inhibition), eight wells with LPS (0% of inhibition) and a series of Rolipram dilutions in order to enable comparison of the tests between each other and then to evaluate their variability.
A leukocyte vial is unfrozen in bain-marie (37° C.), its content is transferred into a 15 ml tube containing 10 ml of RPMI added with 5% of human serum (RPMI-5% HS). The cells are sedimented (800 g, 6 minutes, 4° C.), resuspended in 10 ml of the same medium and counted by dilution in Trypan blue solution. After centrifugating (800 g, 6 minutes, 4° C.), the cells are resuspended to 2×10^6/ml in human serum.
To 50 μl aliquots of different dilutions of compounds, 100 μl of cells are added. The plates are then incubated 30 minutes at 37° C., then 50 μl of solution 4 μg/ml of LPS prepared in human serum are added. The plates are incubated for the night at 37° C.
After incubation for 15-18 hours, 90 μl of growth supernatant are taken and transferred into rounded-bottom microtiter wells. The TNFα presence is then evaluated by ELISA (Pharmingen) by using 50 μl of supernatant. The protocol described by the manufacturer is strictly applied.

The subject of data set [4] is TNFα production in plasma. Kind of data set: In vivo TNFα model in Wistar rat. The following applies: po, 1.5 h, 10 mg/kg p.o. 30 min before LPS i.p., plasma TNFα 90 min after LPS, male Wistar rats, read-out: % Inhibition to 10 mg/kg. From the text:
The TFNα is a cytokin playing a central role in inflammation mechanisms. Its production may be induced by injection of lipopolysaccharid (LPS). It has been shown that the intracellular AMPc increase, produced in particular by PDE4 inhibitors, decreases the TNFα production in in vitro and in vivo models. Therefore it matters here to quantify in vivo anti-inflammatory potential of the compounds of the invention, administrated by oral route (p.o.) by measuring inhibition of TNFα production in plasma in rat, the latter having received a intraperitoneal injection (i.p.) of lipolysaccharid (LPS). The treatment by the compounds of the invention or the carrier is administrated by oral route in male Wistar rats, 30 min. before LPS injection. The rats are sacrificed 90 min. after LPS stimulation, the blood is harvested on EDTA and TNFα concentration is measured in each plasma sample.

Take `COc1ccc([C@]2(C#N)CC[C@@H](C(=O)O)CC2)cc1OC1CCCC1` [Ariflo]: the adverse events entry in data set [1] was “significant adverse events, of the nausea and vomiting type”.
`CN(C)c1nnc2n(C/C=C/c3cccnc3)c(=O)c3cc(Br)ccc3n12` [Compound 3, 7-Bromo-1-dimethylamino-4-((E)-3-pyridin-3-yl-allyl)-4H-[1,2,4]triazolo[4,3-a]quinazolin-5-one]: the IC50 stood at 0.079 µM in data set [2] and 3.4 µM in data set [3]. In addition, the change in vivo at 10 mg/kg in data set [4] is -98%.
`CN(C)c1nnc2n(Cc3ccc(C#N)cc3)c(=O)c3cc(Br)ccc3n12` [Compound 79, 4-(7-Bromo-1-dimethylamino-5-oxo-5H-[1,2,4]triazolo[4,3-a]quinazolin-4-ylmethyl)-benzonitrile] returned a melting point of 207 °C. The same compound displayed an IC50 in data set [2] of 0.14 µM. In data set [3], this compound had an IC50 of 5.2 µM. Moreover, the change in vivo at 10 mg/kg in data set [4] was -72%.
In the case of `CN(C)c1nnc2n(CC=Cc3ccccc3)c(=O)c3cc(Br)ccc3n12` [Compound 85, 7-Bromo-1-dimethylamino-4-(3-phenyl-allyl)-4H-[1,2,4]triazolo[4,3-a]quinazolin-5-one], the melting point came out at 171 °C. The compound also registered an IC50 in data set [2] of 0.041 µM. In addition, the IC50 in data set [3] was 6.8 µM. Besides, in data set [4], the change in vivo at 10 mg/kg is -77%.
The compound `Cc1ccc2c(c1)c(=O)n(Cc1ccc(C#N)cc1)c1nnc(N3CCCC3)n21` [Compound 93, 4-(7-Methyl-5-oxo-1-pyrrolidin-1-yl-5H-[1,2,4]triazolo[4,3-a]quinazolin-4-ylmethyl)-benzonitrile] registered a melting point of 166 °C. In data set [3], this compound showed an IC50 of 4.3 µM. The change in vivo at 10 mg/kg in data set [4] is -67%.
Compound `COc1ccc(Cn2c(=O)c3cc(C)ccc3n3c(N4CCCC4)nnc23)cc1OC` [Compound 94, 4-(3,4-Dimethoxy-benzyl)-7-methyl-1-pyrrolidin-1-yl-4H-[1,2,4]triazolo[4,3-a]quinazolin-5-one] returned a melting point of 184 °C. In addition, it took 0.029 µM to reach half-maximal inhibition in data set [2] (IC50). The compound also came in with an IC50 in data set [3] of 6.3 µM. Besides, the change in vivo at 10 mg/kg in data set [4] was -87%.
As for `Cc1ccc2c(c1)c(=O)n(Cc1ccc(C#N)cc1)c1nnc(N(C)C)n21` [Compound 101, 4-(1-Dimethylamino-7-methyl-5-oxo-5H-[1,2,4]triazolo[4,3-a]quinazolin-4-ylmethyl)-benzonitrile], the melting point is 201 °C. In addition, the IC50 in data set [3] came to 8.6 µM. Besides, the change in vivo at 10 mg/kg in data set [4] was -80%.
`Cc1ccc2c(c1)c(=O)n(CC=Cc1cccnc1)c1nnc(N(C)C)n21` [Compound 104, 1-Dimethylamino-7-methyl-4-(3-pyridin-3-yl-allyl)-4H-[1,2,4]triazolo[4,3-a]quinazolin-5-one] had a melting point of 155 °C. This compound also yielded an IC50 in data set [2] of 0.077 µM. In data set [3], this compound showed an IC50 of 8.1 µM. Besides, in data set [4], the change in vivo at 10 mg/kg is -94%.

The term IC50 denotes the concentration that inhibits the measured activity by half. Low values mean greater potency, high ones weaker potency. As a reminder, the melting point is the temperature of the solid-liquid transition.

(Values after US6828315B1, “1-Amino triazoloc4,3-a! quinazoline-5-ones and/or -5-thiones inhibiting phosphodiesterase IV” (Warner-Lambert LLC, priority 1999, dated 2004).)
